How the values were obtained:
[1] = Adverse events in subjects receiving brequinar intravenously once a week; type: in vivo, human; settings: i.v. once a week, 209 subjects
[2] = Burris, 650 mg/m^2 brequinar (days 1, 8 and 15) with 75 mg/m^2 cisplatin (day 1); cited from earlier work
advanced lung cancer = settings: Gralla, weekly rapid iv injection from 5 mg/kg (200 mg/m^2), previously treated patients with advanced lung cancer; cited from earlier work

With `Cc1c(-c2ccc(-c3ccccc3F)cc2)nc2ccc(F)cc2c1C(=O)O` [brequinar, 6-fluoro-2-(2′-fluoro-1,1′ biphenyl-4-yl)-3-methyl-4-quinoline carboxylic acid] the “All Body Systems, No. of Patients Experiencing the AE, 5y Max Grade 1” value [1] was 36, the “All Body Systems, No. of Patients Experiencing the AE, 5y Max Grade 2” value [1] was 76 and the “All Body Systems, No. of Patients Experiencing the AE, 5y Max Grade 3” value [1] was 55. The “All Body Systems, No. of Patients Experiencing the AE, 5y Max Grade 4” value [1] was 35, the “Anemia, No. of Patients” value [1] was 90 and the “Anemia, No. of Patients Experiencing the AE, 5y Max Grade 1” value [1] was 14. For the same compound, the “Anemia, No. of Patients Experiencing the AE, 5y Max Grade 2” value [1] was 48, the “Anemia, No. of Patients Experiencing the AE, 5y Max Grade 3” value [1] was 23 and the “Anemia, No. of Patients Experiencing the AE, 5y Max Grade 4” value [1] was 5. For the same compound, the “Anorexia, No. of Patients” value [1] was 15, the “Anorexia, No. of Patients Experiencing the AE, 5y Max Grade 1” value [1] was 11 and the “Anorexia, No. of Patients Experiencing the AE, 5y Max Grade 2” value [1] was 3. The “Anorexia, No. of Patients Experiencing the AE, 5y Max Grade 3” value [1] was 1, the “Anorexia, No. of Patients Experiencing the AE, 5y Max Grade 4” value [1] was 0 and the “Anorexia, Percent” value [1] was 7.2%. For the same compound, the “Constipation, No. of Patients” value [1] was 10, the “Constipation, No. of Patients Experiencing the AE, 5y Max Grade 1” value [1] was 6 and the “Constipation, No. of Patients Experiencing the AE, 5y Max Grade 2” value [1] was 2. The “Constipation, No. of Patients Experiencing the AE, 5y Max Grade 3” value [1] was 1, the “Constipation, No. of Patients Experiencing the AE, 5y Max Grade 4” value [1] was 0 and the “Constipation, Percent” value [1] was 4.8%. The “Diarrhea, No. of Patients” value [1] was 77, the “Diarrhea, No. of Patients Experiencing the AE, 5y Max Grade 1” value [1] was 43 and the “Diarrhea, No. of Patients Experiencing the AE, 5y Max Grade 2” value [1] was 21. The “Diarrhea, No. of Patients Experiencing the AE, 5y Max Grade 3” value [1] was 10, the “Diarrhea, No. of Patients Experiencing the AE, 5y Max Grade 4” value [1] was 3 and the “Dyspepsia, No. of Patients” value [1] was 7. For the same compound, the “Dyspepsia, No. of Patients Experiencing the AE, 5y Max Grade 1” value [1] was 6, the “Dyspepsia, No. of Patients Experiencing the AE, 5y Max Grade 2” value [1] was 1 and the “Dyspepsia, No. of Patients Experiencing the AE, 5y Max Grade 3” value [1] was 0. For the same compound, the “Dyspepsia, No. of Patients Experiencing the AE, 5y Max Grade 4” value [1] was 0, the “Dyspepsia, Percent” value [1] was 3.3% and the “Fatigue, No. of Patients” value [1] was 33. The “Fatigue, No. of Patients Experiencing the AE, 5y Max Grade 1” value [1] was 23, the “Fatigue, No. of Patients Experiencing the AE, 5y Max Grade 2” value [1] was 8 and the “Fatigue, No. of Patients Experiencing the AE, 5y Max Grade 3” value [1] was 2. For the same compound, the “Fatigue, No. of Patients Experiencing the AE, 5y Max Grade 4” value [1] was 0, the “Fever, No. of Patients” value [1] was 11 and the “Fever, No. of Patients Experiencing the AE, 5y Max Grade 1” value [1] was 4. For the same compound, the “Fever, No. of Patients Experiencing the AE, 5y Max Grade 2” value [1] was 7, the “Fever, No. of Patients Experiencing the AE, 5y Max Grade 3” value [1] was 0 and the “Fever, No. of Patients Experiencing the AE, 5y Max Grade 4” value [1] was 0. For the same compound, the “Fever, Percent” value [1] was 5.3%, the “Granulocytopenia, No. of Patients” value [1] was 37 and the “Granulocytopenia, No. of Patients Experiencing the AE, 5y Max Grade 1” value [1] was 16. The “Granulocytopenia, No. of Patients Experiencing the AE, 5y Max Grade 2” value [1] was 17, the “Granulocytopenia, No. of Patients Experiencing the AE, 5y Max Grade 3” value [1] was 3 and the “Granulocytopenia, No. of Patients Experiencing the AE, 5y Max Grade 4” value [1] was 5. The “Headache, No. of Patients” value [1] was 7, the “Headache, No. of Patients Experiencing the AE, 5y Max Grade 1” value [1] was 4 and the “Headache, No. of Patients Experiencing the AE, 5y Max Grade 2” value [1] was 3. The “Headache, No. of Patients Experiencing the AE, 5y Max Grade 3” value [1] was 0, the “Headache, No. of Patients Experiencing the AE, 5y Max Grade 4” value [1] was 0 and the “Headache, Percent” value [1] was 3.3%. For the same compound, the “Infection, No. of Patients” value [1] was 7, the “Infection, No. of Patients Experiencing the AE, 5y Max Grade 1” value [1] was 4 and the “Infection, No. of Patients Experiencing the AE, 5y Max Grade 2” value [1] was 3. For the same compound, the “Infection, No. of Patients Experiencing the AE, 5y Max Grade 3” value [1] was 0, the “Infection, No. of Patients Experiencing the AE, 5y Max Grade 4” value [1] was 0 and the “Infection, Percent” value [1] was 3.3%. For the same compound, the “Leukopenia, No. of Patients” value [1] was 69, the “Leukopenia, No. of Patients Experiencing the AE, 5y Max Grade 1” value [1] was 26 and the “Leukopenia, No. of Patients Experiencing the AE, 5y Max Grade 2” value [1] was 31. For the same compound, the “Leukopenia, No. of Patients Experiencing the AE, 5y Max Grade 3” value [1] was 10, the “Leukopenia, No. of Patients Experiencing the AE, 5y Max Grade 4” value [1] was 2 and the “Leukopenia, Percent” value [1] was 33.0%. The “Mucositis, No. of Patients” value [1] was 52, the “Mucositis, No. of Patients Experiencing the AE, 5y Max Grade 1” value [1] was 23 and the “Mucositis, No. of Patients Experiencing the AE, 5y Max Grade 2” value [1] was 15. The “Mucositis, No. of Patients Experiencing the AE, 5y Max Grade 3” value [1] was 11, the “Mucositis, No. of Patients Experiencing the AE, 5y Max Grade 4” value [1] was 3 and the “Nausea, No. of Patients” value [1] was 91. The “Nausea, No. of Patients Experiencing the AE, 5y Max Grade 1” value [1] was 59, the “Nausea, No. of Patients Experiencing the AE, 5y Max Grade 2” value [1] was 19 and the “Nausea, No. of Patients Experiencing the AE, 5y Max Grade 3” value [1] was 12. The “Nausea, No. of Patients Experiencing the AE, 5y Max Grade 4” value [1] was 1, the “Pain Inject Site, No. of Patients” value [1] was 24 and the “Pain Inject Site, No. of Patients Experiencing the AE, 5y Max Grade 1” value [1] was 24. The “Pain Inject Site, No. of Patients Experiencing the AE, 5y Max Grade 2” value [1] was 0, the “Pain Inject Site, No. of Patients Experiencing the AE, 5y Max Grade 3” value [1] was 0 and the “Pain Inject Site, No. of Patients Experiencing the AE, 5y Max Grade 4” value [1] was 0. The “Pain, Abdominal, No. of Patients” value [1] was 8, the “Pain, Abdominal, No. of Patients Experiencing the AE, 5y Max Grade 1” value [1] was 4 and the “Pain, Abdominal, No. of Patients Experiencing the AE, 5y Max Grade 2” value [1] was 3. The “Pain, Abdominal, No. of Patients Experiencing the AE, 5y Max Grade 3” value [1] was 1, the “Pain, Abdominal, No. of Patients Experiencing the AE, 5y Max Grade 4” value [1] was 0 and the “Pain, Abdominal, Percent” value [1] was 3.8%. For the same compound, the “Rash, No. of Patients” value [1] was 53, the “Rash, No. of Patients Experiencing the AE, 5y Max Grade 1” value [1] was 26 and the “Rash, No. of Patients Experiencing the AE, 5y Max Grade 2” value [1] was 15. The “Rash, No. of Patients Experiencing the AE, 5y Max Grade 3” value [1] was 9, the “Rash, No. of Patients Experiencing the AE, 5y Max Grade 4” value [1] was 3 and the “Somnolence, No. of Patients” value [1] was 9. For the same compound, the “Somnolence, No. of Patients Experiencing the AE, 5y Max Grade 1” value [1] was 7, the “Somnolence, No. of Patients Experiencing the AE, 5y Max Grade 2” value [1] was 2 and the “Somnolence, No. of Patients Experiencing the AE, 5y Max Grade 3” value [1] was 0. For the same compound, the “Somnolence, No. of Patients Experiencing the AE, 5y Max Grade 4” value [1] was 0, the “Somnolence, Percent” value [1] was 4.3% and the “Stomatitis, No. of Patients” value [1] was 60. For the same compound, the “Stomatitis, No. of Patients Experiencing the AE, 5y Max Grade 1” value [1] was 32, the “Stomatitis, No. of Patients Experiencing the AE, 5y Max Grade 2” value [1] was 20 and the “Stomatitis, No. of Patients Experiencing the AE, 5y Max Grade 3” value [1] was 7. For the same compound, the “Stomatitis, No. of Patients Experiencing the AE, 5y Max Grade 4” value [1] was 1, the “Thrombocytopenia, No. of Patients” value [1] was 94 and the “Thrombocytopenia, No. of Patients Experiencing the AE, 5y Max Grade 1” value [1] was 26. For the same compound, the “Thrombocytopenia, No. of Patients Experiencing the AE, 5y Max Grade 2” value [1] was 31, the “Thrombocytopenia, No. of Patients Experiencing the AE, 5y Max Grade 3” value [1] was 16 and the “Thrombocytopenia, No. of Patients Experiencing the AE, 5y Max Grade 4” value [1] was 21. For the same compound, the “Thrombocytopenia, Percent” value [1] was 45.0%, the “Vomit, No. of Patients” value [1] was 73 and the “Vomit, No. of Patients Experiencing the AE, 5y Max Grade 1” value [1] was 32. The “Vomit, No. of Patients Experiencing the AE, 5y Max Grade 2” value [1] was 24, the “Vomit, No. of Patients Experiencing the AE, 5y Max Grade 3” value [1] was 12 and the “Vomit, No. of Patients Experiencing the AE, 5y Max Grade 4” value [1] was 5. For the same compound, the “effect of combination on individual drug pharmacokinetic parameters” value [2] was “without significant modifications of individual drug pharmacokinetic parameters”.

In the case of `NC(=O)c1[nH]nc([C@@H]2O[C@H](CO)[C@@H](O)[C@H]2O)c1O` [pyrazofurin, 5-[(2S,3R,4S,5R)-3,4-dihydroxy-5-(hydroxymethyl)oxolan-2-yl]-4-hydroxy-1H-pyrazole-3-carboxamide], the therapeutic activity (advanced lung cancer) is listed as “little therapeutic value as a single agent”.

Source: US20190290892A1, “METHODS OF DETERMINING DOSING OF A THERAPEUTIC AGENT BASED ON MEASURED LEVELS OF A METABOLITE” (Clear Creek Bio, Inc., priority 2018, published 2019)
